Data as given in ChEMBL document CHEMBL1158802, “Bioactive constituents of the leaves of Phyllanthus polyphyllus var. siamensis” (J Nat Prod, 2005).
In brackets after ≈: the same amount, converted by molar mass. Activity calls are given as the source filed them. The calls are words filed in the database; no cut-off is given here.

Key:
KB = assay: Cytotoxicity against human KB cells by colorimetric method; assay type: functional, cell-based
[1] = Cytotoxicity against human BC cells by colorimetric method; assay type: functional, cell-based
NCI-H187 = assay: Cytotoxicity against human NCI-H187 cells by colorimetric method; assay type: functional, cell-based
Vero = assay: Cytotoxicity against african green monkey Vero cells by colorimetric method; assay type: cell-based; conditions: Chlorocebus sabaeus

Row | SMILES | Activity (KB) | IC50 [1] [µg/mL] | Activity (NCI-H187) | IC50 (Vero) [µg/mL] | IC50 (KB) [µg/mL] | IC50 (NCI-H187) [µg/mL]
1 | CC(=O)O[C@@H]1[C@@H](OC(C)=O)[C@H](O[C@H]2CC[C@]3(C)[C@H]4CC=C5[C@@H]6CC(C)(C)CC[C@]6(C(=O)O)CC[C@@]5(C)[C@]4(C)CC[C@H]3C2(C)C)OC[C@@H]1OC(C)=O | inactive | 3.3 (≈ 4.62 µM) | inactive | 3.2 (≈ 4.48 µM) | – | –
2 | CC(=O)O[C@H]1CO[C@@H](O[C@H]2CC[C@@]3(C)[C@@H](CC[C@]4(C)[C@@H]3CC=C3[C@@H]5CC(C)(C)CC[C@]5(C(=O)O)CC[C@]34C)[C@]2(C)CO)[C@H](O)[C@H]1O | inactive | 3.6 (≈ 5.57 µM) | inactive | 10.7 (≈ 16.5 µM) | – | –
3 | CC(=O)OC[C@@]1(C)[C@@H]2CC[C@]3(C)[C@H](CC=C4[C@@H]5CC(C)(C)CC[C@]5(C(=O)O)CC[C@]43C)[C@@]2(C)CC[C@@H]1O[C@@H]1OC[C@H](OC(C)=O)[C@H](OC(C)=O)[C@H]1OC(C)=O | – | 3.6 (≈ 4.66 µM) | – | – | 3.7 (≈ 4.79 µM) | 2.2 (≈ 2.85 µM)
4 | OC[C@H](Cc1ccc2c(c1)OCO2)[C@H](CO)Cc1ccc2c(c1)OCO2 [DIHYDROCUBEBIN] | – | > 5 | – | – | > 5 | > 5
5 | COc1cc(C[C@@H](CO)[C@H](CO)Cc2ccc(O)c(OC)c2)ccc1O [(+)-SECOISOLARICIRESINOL] | – | > 5 | – | – | > 5 | > 5
6 | CC1(C)CC[C@]2(C(=O)O)CC[C@]3(C)C(=CC[C@@H]4[C@@]5(C)CC[C@H](O[C@@H]6OC[C@H](O)[C@H](O)[C@H]6O)C(C)(C)[C@@H]5CC[C@]43C)[C@@H]2C1 | inactive | 1.7 (≈ 2.89 µM) | – | 2.8 (≈ 4.76 µM) | – | 3.2 (≈ 5.43 µM)
7 | Cc1c2ccncc2c(C)c2c1[nH]c1ccccc12 [ELLIPTECINE] | – | 0.36 (≈ 1.46 µM) | – | – | 0.26 (≈ 1.06 µM) | 0.32 (≈ 1.3 µM)
8 | CC(=O)O[C@@H]1[C@@H](O)[C@H](O[C@H]2CC[C@@]3(C)[C@@H](CC[C@]4(C)[C@@H]3CC=C3[C@@H]5CC(C)(C)CC[C@]5(C(=O)O)CC[C@]34C)[C@]2(C)CO)OC[C@@H]1O | inactive | – | inactive | – | – | –
9 | CC1(C)CC[C@]2(C(=O)O)CC[C@]3(C)C(=CC[C@@H]4[C@@]5(C)CC[C@H](O[C@@H]6OC[C@H](O)[C@H](O)[C@H]6O)[C@@](C)(CO)[C@@H]5CC[C@]43C)[C@@H]2C1 | inactive | – | inactive | – | – | –
10 | CC1(C)CC[C@]2(C(=O)O)CC[C@]3(C)C(=CC[C@@H]4[C@@]5(C)CC[C@H](O)[C@@](C)(CO)[C@@H]5CC[C@]43C)[C@@H]2C1 [HEDERAGENIN] | – | > 5 | – | – | > 5 | > 5
11 | O=C1C=C2C=C[C@@H](O)C[C@H]2O1 [MENISDAURILIDE] | – | > 5 | – | – | > 5 | > 5
12 | CC(=O)O[C@H]1[C@H](O[C@H]2CC[C@@]3(C)[C@@H](CC[C@]4(C)[C@@H]3CC=C3[C@@H]5CC(C)(C)CC[C@]5(C(=O)O)CC[C@]34C)[C@]2(C)CO)OC[C@H](O)[C@@H]1O | – | – | inactive | – | – | –
